Format in all cases: cell-based
In experiment [1] the test system is E. faecium VRE; vanA. Put plainly: MIC, Gram-positive bacteria: E. faecium VRE; vanA. The note with it: Enterococcus faecium, column 3, read-out: Minimal Inhibitory Concentration (MIC) E. faecium VRE.
Experiment [2] relates to H. influenzae ATCC 49247. Put plainly: MIC, Gram-negative bacteria: H. influenzae ATCC 49247. The conditions noted are these: Haemophilus influenzae, ATCC49247, read-out: Minimal Inhibitory Concentration (MIC) H. influenzae ATCC 49247.
Experiment [3] has as its system E. faecalis. Put plainly: MIC, Gram-positive bacteria: E. faecalis. The note with it: Enterococcus faecalis, column 1, read-out: Minimal Inhibitory Concentration (MIC) E. faecalis.
In experiment [4] the test system is P. aeruginosa ATCC 27853. Put plainly: MIC, Gram-negative bacteria: P. aeruginosa ATCC 27853. The conditions noted are these: Pseudomonas aeruginosa, ATCC27853, read-out: Minimal Inhibitory Concentration (MIC) P. aeruginosa ATCC 27853.
For experiment [5], the system named is E. faecium ATCC 35667. Put plainly: MIC, Gram-positive bacteria: E. faecium ATCC 35667. The note with it: Enterococcus faecium, ATCC35667, column 2, read-out: Minimal Inhibitory Concentration (MIC) E. faecium ATCC 35667.
Experiment [6] relates to S. aureus Vat A streptogramin. As to the kind of experiment: MIC, Gram-positive bacteria: S. aureus Vat A streptogramin. The note with it: Staphylococcus aureus, read-out: Minimal Inhibitory Concentration (MIC) S. aureus Vat A streptogramin.
For experiment [7], the system named is S. pneumoniae. As to the kind of experiment: MIC, Gram-positive bacteria: S. pneumoniae. The conditions noted are these: Streptococcus pneumoniae, column 10, read-out: Minimal Inhibitory Concentration (MIC) S. pneumoniae.
In experiment [8] the test system is P. aeruginosa MDR clinical isolate. Put plainly: MIC, Gram-negative bacteria: P. aeruginosa MDR clinical isolate. The conditions noted are these: Pseudomonas aeruginosa, read-out: Minimal Inhibitory Concentration (MIC) P. aeruginosa MDR clinical isolate.
The test system of experiment [9] is Gram-Negative Organisms. Put plainly: microbe, parasite or virus in culture.
Experiment [10] concerns S. aureus Linezolid-resistant; cfr. Put plainly: MIC, Gram-positive bacteria: S. aureus Linezolid-resistant; cfr. The conditions noted are these: Staphylococcus aureus, column 9, read-out: Minimal Inhibitory Concentration (MIC) S. aureus Linezolid-resistant.
The subject of experiment [11] is K. pneumoniae multidrug-resistant. As to the kind of experiment: MIC, Gram-negative bacteria: K. pneumoniae multidrug-resistant. The conditions noted are these: Klebsiella pneumoniae, read-out: Minimal Inhibitory Concentration (MIC) K. pneumoniae multidrug-resistant.
The test system of experiment [12] is S. aureus. As to the kind of experiment: MIC, Gram-positive bacteria: S. aureus (strains not named). The conditions noted are these: Staphylococcus aureus, read-out: Minimal Inhibitory Concentration (MIC) S. aureus.
The mark [13] stands for this setting: Acinetobacter baumannii, ATCC19606, read-out: Minimal Inhibitory Concentration (MIC), A. baumannii ATCC 19606.
Where [14] appears, read: Escherichia coli, ATCC25922, read-out: Minimal Inhibitory Concentration (MIC), E. coli ATCC 25922.
[15] abbreviates: Escherichia coli, read-out: Minimal Inhibitory Concentration (MIC), E. coli BAS2006, OMP C, OMP F.
[16] abbreviates: Escherichia coli, read-out: Minimal Inhibitory Concentration (MIC), E. coli olC efflux defective.
Where [17] appears, read: Escherichia coli, read-out: Minimal Inhibitory Concentration (MIC), E. coli permeability mutant BAS1314, IMP4213ZAB::TN10.
[18] abbreviates: Escherichia coli, read-out: Minimal Inhibitory Concentration (MIC), E. coli ΔompC768, KanR insert.
The mark [19] stands for this setting: Klebsiella pneumoniae, ATCC43816, read-out: Minimal Inhibitory Concentration (MIC), K. pneumoniae ATCC 43816.
The mark [20] stands for this setting: first unnamed S. aureus column (c4).
The mark [21] stands for this setting: fourth unnamed S. aureus column (c8).
Where [22] appears, read: second unnamed S. aureus column (c6).
The mark [23] stands for this setting: third unnamed S. aureus column (c7).

Converted amounts (≈) assume the structure as drawn. Where two headings read alike, the source gives them in different places.

Consider `CC1=C\[C@@H](O)CC(=O)Cc2nc(co2)C(=O)N2CCC[C@@H]2C(=O)O[C@H]([C@H](C)COC(=O)Nc2ccc(C)cc2)[C@H](C)/C=C/C(=O)NC\C=C\1` [SA0110184], for which the MIC in [1] is 16 µg/mL (≈ 23.6 µM); in experiment [2] it was 16 µg/mL (≈ 23.6 µM); in experiment [3], above 64 µg/mL; in experiment [4] it was above 64 µg/mL; in experiment [5], 16 µg/mL (≈ 23.6 µM); in experiment [6] (Gram-positive, column 5) it was above 64 µg/mL. Also, the MIC in [7] is 32 µg/mL (≈ 47.3 µM); in experiment [8], above 64 µg/mL; in experiment [9] (setting [13]), above 64 µg/mL; in [9] (setting [14]) it was above 64 µg/mL; in experiment [9] (setting [15]) it was above 64 µg/mL; in [9] (setting [16]), 4 µg/mL (≈ 5.91 µM). Moreover, the MIC in [9] (setting [17]) is 2 µg/mL (≈ 2.96 µM); in experiment [9] (setting [18]) it was above 64 µg/mL; in experiment [9] (setting [19]), above 64 µg/mL; in experiment [10] it was above 64 µg/mL; in experiment [11], above 64 µg/mL; in experiment [12] (setting [20]), 16 µg/mL (≈ 23.6 µM). Further, the MIC in [12] (setting [21]) was determined as 16 µg/mL (≈ 23.6 µM); in experiment [12] (setting [22]) it was 16 µg/mL (≈ 23.6 µM); in experiment [12] (setting [23]), 32 µg/mL (≈ 47.3 µM).
As to `CC1=C\[C@@H](O)CC(=O)Cc2nc(c([Si](C)(C)C)o2)C(=O)N2CCC[C@@H]2C(=O)O[C@H](C(C)C)[C@H](C)/C=C/C(=O)NC\C=C\1` [SA0110261], the MIC in experiment [1] is above 64 µg/mL; in [2], above 64 µg/mL; in [3], above 64 µg/mL; in experiment [4], above 64 µg/mL; in [5] it was 64 µg/mL (≈ 107 µM); in experiment [6], above 64 µg/mL. The MIC in [7] is 64 µg/mL (≈ 107 µM); in [8], above 64 µg/mL; in experiment [9] (setting [13]), above 64 µg/mL; in experiment [9] (setting [14]), above 64 µg/mL; in [9] (setting [15]) it was above 64 µg/mL; in experiment [9] (setting [16]) it was 64 µg/mL (≈ 107 µM). For the same compound, the MIC is 16 µg/mL (≈ 26.7 µM) in experiment [9] (setting [17]); above 64 µg/mL in [9] (setting [18]); above 64 µg/mL in experiment [9] (setting [19]); above 64 µg/mL in [10]; above 64 µg/mL in experiment [11]; above 64 µg/mL in [12] (setting [20]). For the same compound, the MIC in experiment [12] (setting [21]) is 64 µg/mL (≈ 107 µM); in experiment [12] (setting [22]), 64 µg/mL (≈ 107 µM); in experiment [12] (setting [23]), above 64 µg/mL.
With `CC1=C\[C@@H](O)CC(=O)Cc2nc(co2)C(=O)N2CCC[C@@H]2C(=O)O[C@H]([C@H](C)COC(=O)Nc2ccn(C)n2)[C@H](C)/C=C/C(=O)NC\C=C\1` [SA0110218], the MIC in experiment [1] is above 64 µg/mL; in experiment [2] it was 32 µg/mL (≈ 48 µM); in [3] it was above 64 µg/mL; in [4] it was above 64 µg/mL; in [5], above 64 µg/mL; in experiment [6] (Gram-positive, column 5), above 64 µg/mL. Further, the MIC in [7] is above 64 µg/mL; in [8] it was above 64 µg/mL; in experiment [9] (setting [13]), above 64 µg/mL; in [9] (setting [14]), above 64 µg/mL; in experiment [9] (setting [15]), above 64 µg/mL; in experiment [9] (setting [16]), 16 µg/mL (≈ 24 µM). In addition, the MIC in experiment [9] (setting [17]) was 32 µg/mL (≈ 48 µM); in experiment [9] (setting [18]), above 64 µg/mL; in experiment [9] (setting [19]) it was above 64 µg/mL; in experiment [10], above 64 µg/mL; in experiment [11], above 64 µg/mL; in experiment [12] (setting [20]), above 64 µg/mL. The MIC in experiment [12] (setting [21]), in experiment [12] (setting [22]) and in experiment [12] (setting [23]) was above 64 µg/mL in each case.
`CC1=C\[C@@H](O)C[C@@H](O)Cc2nc(cs2)C(=O)N2CCC[C@@H]2C(=O)O[C@H](C(C)C)[C@H](C)/C=C/C(=O)NC\C=C\1` [SA0110264]: the MIC in experiment [1] is 4 µg/mL (≈ 7.33 µM); in experiment [2], 1 µg/mL (≈ 1.83 µM); in experiment [3] it was above 64 µg/mL; in experiment [4] it was above 64 µg/mL; in experiment [5], 1 µg/mL (≈ 1.83 µM); in experiment [6] (Gram-positive, column 5), above 64 µg/mL. Further, the MIC in experiment [7] was 2 µg/mL (≈ 3.67 µM); in experiment [8] it was above 64 µg/mL; in experiment [9] (setting [13]), above 64 µg/mL; in [9] (setting [14]), above 64 µg/mL; in experiment [9] (setting [15]), 4 µg/mL (≈ 7.33 µM); in [9] (setting [16]) it was 2 µg/mL (≈ 3.67 µM). Besides, the MIC in [9] (setting [17]) is 1 µg/mL (≈ 1.83 µM); in experiment [9] (setting [18]), above 64 µg/mL; in experiment [9] (setting [19]), above 64 µg/mL; in experiment [10], above 64 µg/mL; in [11], above 64 µg/mL; in [12] (setting [20]), 8 µg/mL (≈ 14.7 µM). In addition, the values for the MIC in experiment [12] (setting [21]), in [12] (setting [22]) and in experiment [12] (setting [23]) were 8 µg/mL (≈ 14.7 µM), 16 µg/mL (≈ 29.3 µM) and 16 µg/mL (≈ 29.3 µM), respectively.

(Values after patent US20200325177A1, “METHODS OF MAKING STREPTOGRAMIN COMPOSITIONS AND THE USE THEREOF” (THE REGENTS OF THE UNIVERSITY OF CALIFORNIA, priority 2017, published 2020).)
